What is called Ki is the equilibrium dissociation constant of an inhibitor or competing ligand from its target. Low readings indicate higher affinity, high ones lower affinity.

These results are taken from BindingDB's records for doi:10.1016/j.chembiol.2010.07.016 (Cyclacel, 2010).

Common to all, as to experiment: In Vitro Kinase Assay
Assay [1] addresses Cyclin-dependent kinase 9 (Homo sapiens, UniProt P50750). From the text:
(§1) Kinase assay using cyclin-dependant kinases (CDK).

In assay [2] the target is Cyclin-dependent kinase 1 (Homo sapiens, UniProt P06493).
From the text: as §1

The target of assay [3] is Cyclin-dependent kinase 2 (Homo sapiens, UniProt P24941).
From the text: as §1

Assay [4] deals with Cyclin-dependent kinase 4 (Homo sapiens, UniProt P11802).
From the text: as §1

Assay [5] has as its target Cyclin-dependent kinase 7 (Homo sapiens, UniProt P50613).
From the text: as §1

Cyclin-dependent kinase 7, sequence (P50613 whole entry): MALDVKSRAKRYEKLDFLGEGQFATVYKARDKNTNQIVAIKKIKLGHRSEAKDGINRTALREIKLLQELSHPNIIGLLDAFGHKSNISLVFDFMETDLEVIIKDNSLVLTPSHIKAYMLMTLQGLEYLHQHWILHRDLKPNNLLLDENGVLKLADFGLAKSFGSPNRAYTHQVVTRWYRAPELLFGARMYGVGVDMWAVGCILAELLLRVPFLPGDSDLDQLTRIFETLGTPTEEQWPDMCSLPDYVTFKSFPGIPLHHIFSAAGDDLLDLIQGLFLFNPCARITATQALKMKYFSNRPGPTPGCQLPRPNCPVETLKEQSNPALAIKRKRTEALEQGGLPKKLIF
Cyclin-dependent kinase 9, sequence (P50750 whole entry): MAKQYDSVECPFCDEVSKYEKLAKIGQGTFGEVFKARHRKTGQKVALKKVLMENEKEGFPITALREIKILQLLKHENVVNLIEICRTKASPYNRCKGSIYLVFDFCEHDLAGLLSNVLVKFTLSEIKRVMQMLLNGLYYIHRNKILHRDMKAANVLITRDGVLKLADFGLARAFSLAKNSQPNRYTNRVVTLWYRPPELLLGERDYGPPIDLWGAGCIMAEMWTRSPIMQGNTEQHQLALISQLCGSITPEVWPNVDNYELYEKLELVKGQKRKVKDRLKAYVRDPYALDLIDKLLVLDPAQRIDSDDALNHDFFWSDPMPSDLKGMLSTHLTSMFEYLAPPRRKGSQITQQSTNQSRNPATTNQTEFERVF
Cyclin-dependent kinase 1, sequence (P06493 whole entry): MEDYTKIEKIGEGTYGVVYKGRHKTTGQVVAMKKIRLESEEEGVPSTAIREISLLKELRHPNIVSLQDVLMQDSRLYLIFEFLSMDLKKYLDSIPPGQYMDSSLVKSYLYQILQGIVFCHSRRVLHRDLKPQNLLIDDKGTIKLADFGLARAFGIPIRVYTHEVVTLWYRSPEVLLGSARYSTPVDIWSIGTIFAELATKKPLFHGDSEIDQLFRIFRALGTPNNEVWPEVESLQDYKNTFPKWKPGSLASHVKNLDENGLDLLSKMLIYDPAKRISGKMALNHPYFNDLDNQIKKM
Cyclin-dependent kinase 4, sequence (P11802 whole entry): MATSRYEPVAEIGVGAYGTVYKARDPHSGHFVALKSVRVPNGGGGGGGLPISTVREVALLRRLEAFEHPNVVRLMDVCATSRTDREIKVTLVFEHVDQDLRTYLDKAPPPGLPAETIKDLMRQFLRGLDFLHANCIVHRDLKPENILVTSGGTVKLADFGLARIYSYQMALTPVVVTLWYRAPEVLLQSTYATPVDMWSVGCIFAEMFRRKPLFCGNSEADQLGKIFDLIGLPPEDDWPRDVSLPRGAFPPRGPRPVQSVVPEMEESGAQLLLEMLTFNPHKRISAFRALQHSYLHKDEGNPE

In the case of `CCNc1nc(C)c(-c2ccnc(Nc3cccc(S(N)(=O)=O)c3)n2)s1` [CDK Inhibitor, 2], the Ki in assay [1] was found to be 4.5 nM; in assay [2] it was 691 nM; in assay [3], 403 nM; in assay [4] it was 132 nM; in assay [5] it was 56 nM.

As for `CNc1nc(C)c(-c2ccnc(Nc3cccc(S(N)(=O)=O)c3)n2)s1` [CDK Inhibitor, 3], the Ki in assay [1] came out at 0.8 nM; in assay [2], 67 nM; in assay [3], 2.4 nM; in assay [4], 9.1 nM; in assay [5], 25 nM.

With `CNc1nc(C)c(-c2ccnc(Nc3cccc(S(=O)(=O)NC)c3)n2)s1` [CDK Inhibitor, 4], the Ki worked out at 4.3 nM in assay [1]; 334 nM in assay [2]; 33 nM in assay [3]; 20 nM in assay [4]; 107 nM in assay [5].

As for `CNS(=O)(=O)c1cccc(Nc2nccc(-c3sc(N)nc3C)n2)c1` [CDK Inhibitor, 5], the Ki came out at 4.3 nM in assay [1]; 233 nM in assay [2]; 26 nM in assay [3]; 163 nM in assay [4]; 127 nM in assay [5].

On to `CNc1nc(C)c(-c2ccnc(Nc3cccc(S(C)(=O)=O)c3)n2)s1` [CDK Inhibitor, 6], for which the inhibition constant Ki in assay [1] was 0.29 nM; in assay [2], 86 nM; in assay [3], 1.6 nM; in assay [4], 94 nM; in assay [5] it was 91 nM.

As to `CCNc1nc(C)c(-c2ccnc(Nc3cccc(S(C)(=O)=O)c3)n2)s1` [CDK Inhibitor, 7], the inhibition constant (Ki) is 0.96 nM in assay [1]; above 500 nM in assay [2]; 7.6 nM in assay [3]; 139 nM in assay [4]; 47 nM in assay [5].

Turning to `CCNS(=O)(=O)c1cccc(Nc2nccc(-c3sc(N)nc3C)n2)c1` [CDK Inhibitor, 8], the Ki in assay [1] was found to be 5.9 nM; in assay [2], 660 nM; in assay [3], 47 nM; in assay [4], 391 nM; in assay [5], 193 nM.

For `CNc1nc(C)c(-c2ccnc(Nc3ccc(C)c(S(=O)(=O)N4CCOCC4)c3)n2)s1` [CDK Inhibitor, 9], the Ki in assay [1] is 6.7 nM; in assay [2], above 500 nM; in assay [3], above 500 nM; in assay [4], above 500 nM; in assay [5], 3470 nM.

For the compound `Cc1ccc(Nc2nccc(-c3sc(N)nc3C)n2)cc1S(=O)(=O)N1CCOCC1` [CDK Inhibitor, 10], the inhibition constant Ki in assay [1] is 8.5 nM; in assay [2] it was above 500 nM; in assay [3], above 500 nM; in assay [4], above 500 nM; in assay [5] it was 304 nM.

With `COCCNS(=O)(=O)c1ccc(Nc2nccc(-c3sc(=O)n(C)c3C)n2)cc1` [CDK Inhibitor, 11], the Ki in assay [4] was above 500 nM.

Turning to `Cc1c(-c2ccnc(Nc3cccc(C#N)c3)n2)sc(=O)n1C` [CDK Inhibitor, 12], the Ki in assay [3] came to 0.52 nM; in assay [4], 102 nM.

As for `Cc1ccc(Nc2nccc(-c3sc(=O)n(C)c3C)n2)cc1[N+](=O)[O-]` [CDK Inhibitor, 13], the Ki in assay [1] was 5.9 nM; in assay [2] it was 3 nM; in assay [3] it was 28 nM; in assay [4], 60 nM; in assay [5], 0.56 nM.

In the case of `Cc1c(-c2ccnc(Nc3ccc(N4CCNCC4)cc3)n2)sc(=O)n1C` [CDK Inhibitor, 14], the Ki in assay [1] came out at 0.38 nM; in assay [2] it was 449 nM; in assay [3], 149 nM; in assay [4] it was 68 nM; in assay [5], 2.3 nM.
